In patent US6627650B2, “Indenoindolone compounds” (Les Laboratoires Servier, priority 2001, dated 2003):
Where a name gives a salt, the structure may show the parent alone. Read-outs that look alike come from different tables or passages of the source.

Legend:
A549 = test: In vitro cytotoxicity, microculture tetrazolium assay, A549; assay type: cell-based, human; settings: read-out: IC50 A549
Procedure: (§1) Five cell lines were used:
1 non-small-cell human lung carcinoma, A549.
(§2) The cells are cultured in RPMI 1640 complete culture medium comprising 10% fetal calf serum, 2 mM glutamine, 50 units/ml of penicillin, 50 μg/ml of streptomycin and 10 mM Hepes, pH 7.4. The cells are distributed on microplates and are exposed to the cytotoxic compounds. The cells are then incubated for four doubling periods (2 days: L1210, P388, or 4 days: A549, HT29, A-431). The number of viable cells is then quantified by a colorimetric assay, the microculture tetrazolium assay (Cancer Res. 1987, 47 939-942).
(§3) The results are expressed as IC50, the concentration of product that inhibits the proliferation of the treated cells by 50% compared with the untreated cells.

HT29 = test: In vitro cytotoxicity, microculture tetrazolium assay, HT29; assay type: cell-based, human; settings: HT-29, 96 h, read-out: IC50 HT29
Procedure: as §1
1 human colon carcinoma, HT29.
as §2, §3

A-431 = test: In vitro cytotoxicity, microculture tetrazolium assay, A-431; assay type: cell-based, human; settings: read-out: IC50 A-431
Procedure: as §1
1 human epidermoid carcinoma, A-431.
as §2, §3

L1210 cells = test: Action on the cell cycle (L1210), flow cytometry; assay type: cell-based, murine; settings: concentration 0.25 μM, after 21 hours (control: 20%)
Procedure: L1210 cells are incubated for 21 hours at 37° C. in the presence of various concentrations of compound tested. The cells are then fixed using 70% ethanol (v/v), washed twice in PBS and incubated for 30 minutes at 20° C. in PBS that contains 100 μg/ml of RNAse and 50 μg/ml of propidium iodide. The distribution of the cells in the various phases of the cell cycle are then analysed by flow cytometry. The results are expressed as a percentage of the cells that have accumulated in the G2+M phase after 21 hours compared with the control (control: 20%). By way of example, at a concentration of 0.25 μM the compounds of Examples 1 and 18 induce a 75% accumulation of the cells in the G2+M phase after 21 hours.

P388 = test: In vitro cytotoxicity, microculture tetrazolium assay, P388; assay type: cell-based; settings: Mus musculus, 48 h; P388 murine leukaemia, 2 days incubation, inhibition of proliferation
Procedure: as §1, §2, §3

C38 colon carcinoma = test: In vivo anti-tumour activity on established C38 colon carcinoma; settings: from a dose of 25 mg/kg, i.v. once a week for 3 weeks (days 10, 17 and 24), B6D2F1 mice, subcutaneous C38
Procedure: Fragments of C38 colon carcinoma weighing approximately 30 mg were grafted subcutaneously on day 0 onto B6D2F1 mice (Iffa Credo, France). After growth of the tumour, the mice were separated into control (18 animals) and treated (6 to 7 animals) groups, which were homogeneous in respect of the tumour size. The products were administered by the i.v. route once a week for 3 weeks (on days 10, 17 and 24) at their maximum tolerated dose (MTD), MTD/2 and MTD/4.
The tumours were measured twice per week and the tumour volumes were calculated according to the formula: volume (mm^3)=length (mm)×width^2 (mm^2)/2.
The anti-tumour activity is expressed as % T/C: [formula]
VO and Vt denoting, respectively, the initial volume of the tumour and its volume at the time of measurement t.
The optimum dose is the dose that yields the lowest T/C without toxicity (premature death or loss of weight greater than 20%).

L1210 = test: In vitro cytotoxicity, microculture tetrazolium assay, L1210; assay type: cell-based; settings: Mus musculus, 48 h; L1210 murine leukaemia, 2 days incubation, inhibition of proliferation
Procedure: as §1, §2, §3

Structure (SMILES) | IC50 (A549; Homo sapiens, A549, 96 h) | IC50 (HT29; Homo sapiens) | IC50 (A-431; Homo sapiens, A-431, 96 h) | accumulation of the cells in the G2+M phase (L1210 cells) | IC50 (P388) | IC50 (A549; 96 h, A549 non-small-cell human lung carcinoma, 4 days incubation) | T/C (tumour volume) (C38 colon carcinoma) | IC50 (HT29; HT29 human colon carcinoma, 4 days incubation) | IC50 (A-431; 96 h, A-431 human epidermoid carcinoma, 4 days incubation) | IC50 (L1210)
C#CC(O/N=C1/c2cc(OC)c(OC)cc2-c2[nH]c3ccc(OCCN(C)C)cc3c21)c1ccccc1 (centres unmarked) [Example 1, (10Z)-8-(2-Dimethylaminoethoxy)-2,3-dimethoxyindeno[1,2-b]indole-10(5H)-one O-(1-Phenyl-2-Propynyl)oxime Hydrochloride] | 71 nM | 248 nM | 87 nM | 75% | – | – | – | – | – | –
C#CCO/N=C1/c2cc(OC)c(OC)cc2-c2[nH]c3ccc(OCCN(C)C)cc3c21.Cl [Example 18, (10Z)-8-(2-Dimethylaminoethoxy)-2,3-dimethoxyindeno[1,2-b]indole-10(5H)-one O-(2-Propynyl)oxime Hydrochloride] | – | – | – | 75% | 241 nM | 101 nM | 24% | 181 nM | 174 nM | 104 nM
